Earlier results in patent publication US10955416B2, “Compositions for detecting mutant anaplastic lymphoma kinase in human lung cancer” (CELL SIGNALING TECHNOLOGY, INC., priority 2006, dated 2021).

System: lymphoma cells
Settings: Marzec et al., Lab. Invest. 85(12): 1544-54 (2005); cited from earlier work

SMILES | apoptosis in lymphoma cells | proliferation in lymphoma cells
COc1cc2ncnc(Nc3ccc(O)cc3)c2cc1OC [WHI-131] | induce apoptosis | suppress proliferation
COc1cc2ncnc(Nc3ccc(O)c(Br)c3)c2cc1OC [WHI-154] | induce apoptosis | suppress proliferation
